From PubChem BioAssay (NCI) come the findings set out here.

Common to all, as to assay: NCI anticancer screen, dose series, 48 h
In test [1] the test system is SK-OV-3 ovarian.
The test system of test [2] is SF-268 CNS.
The subject of test [3] is SK-MEL-5 melanoma.
Test [4] deals with OVCAR-5 ovarian.
Test [5] deals with RXF 393 renal.
In test [6] the test system is U251 CNS.
Test [7] deals with OVCAR-8 ovarian.
In test [8] the test system is HL-60(TB) leukemia.
Test [9] deals with UACC-62 melanoma.
In test [10] the test system is MCF7 breast.

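The compound was tested at five concentrations on cells cultured in 96-well plates, with a 48-hour exposure period. GI50 marks 50% less growth. At the TGI there is no net growth.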 Where only a bound is given, the exact number is not on record here.

For the molecule `CC(=O)Nc1ccc(/C=C/C(=O)c2sc(C(N)=S)nc2C)cc1`, the TGI in [1], in [2], in test [3], in test [4], in test [5] and in [6] was over 100 µM throughout. Besides, the TGI in test [7], in test [8] and in test [9] was over 100 µM throughout.
As to `CN=S(=O)(C[C@]1(O)CC2OC1C1OC(C)(C)OC21)c1ccccc1` (stereo partly drawn), the TGI in test [1], in test [2], in test [3], in [4], in test [5] and in test [6] was over 100 µM in each case. The TGI in test [7], in [8] and in test [9] was over 100 µM in each case.
With `O=C(Cn1ccnc1[N+](=O)[O-])NCC(F)(F)C(F)(F)F`, the GI50 in test [1], in test [2], in test [3], in test [4], in test [5] and in test [6] was over 100 µM in each case. Further, the GI50 in test [7], in test [9] and in test [10] was over 100 µM each time. In addition, the TGI in [1], in [2], in [3], in [4], in test [5] and in test [6] was over 100 µM in each case. Also, the TGI in test [7], in [9] and in test [10] was over 100 µM in each case.
`Cc1c(Cl)ccc2c1NC(=O)C2(O)C1Cc2ccccc2C1=O` (stereo not drawn): the TGI in [1], in test [2], in test [3], in test [4], in test [5] and in [6] was over 100 µM throughout. Moreover, the figures for the TGI in [7], in test [8] and in [9] were over 100 µM, 65.4 µM and over 100 µM, respectively.
In the case of `Clc1ccc(CO/N=C(\Cn2ccnc2)c2ccc(Cl)cc2Cl)c(Cl)c1`, the GI50 is 1.8 µM in test [1]; 1.63 µM in test [3]; 1.67 µM in test [4]; 1.61 µM in test [5]; 1.51 µM in test [6]; 2.08 µM in test [8]. Further, the GI50 was 1.24 µM in test [9] and 1.54 µM in test [10]. Further, the TGI in test [1] was 3.18 µM; in test [3], 3.03 µM; in test [4], 3.26 µM; in test [5] it was 3.05 µM; in [6] it was 2.94 µM; in test [8] it was 4.62 µM. For the same molecule, the TGI in test [9] is 2.67 µM; in [10], 3.02 µM.
For `CCC[CH2][Sn]([CH2]CCC)([S]C1=NCCS1)[S]C1=NCCS1`, the GI50 in test [1] was 1.9 µM; in test [2] it was 0.254 µM; in [3], 0.452 µM; in test [4] it was 2.29 µM; in test [5], 0.0846 µM; in [6] it was 0.567 µM. Moreover, the figures for the GI50 in test [7], in [8] and in test [9] were 0.397 µM, 0.298 µM and 0.177 µM, respectively. Also, the TGI turned out to be 3.31 µM in [1]; 0.908 µM in test [2]; 1.76 µM in [3]; 3.78 µM in [4]; 0.301 µM in test [5]; 1.86 µM in test [6]. Moreover, the TGI amounted to 1.6 µM in test [7], 0.881 µM in test [8] and 0.814 µM in [9].
With `ON(CCc1ccccn1)Cc1ccccc1`, the TGI in [1], in test [2], in test [3], in test [4], in test [5] and in test [6] was over 100 µM each time. Besides, the TGI in [7], in test [9] and in test [10] was over 100 µM throughout.
On to `O=C(CC1(O)C(=O)Nc2c(Cl)cc(Cl)cc21)c1ccc2ccccc2c1` (stereo not drawn), for which the TGI in test [1] came out at 24.6 µM; in test [2], 31.8 µM; in test [3], 18.8 µM; in test [4], 30.3 µM; in test [5], 20.9 µM; in test [6] it was 18.7 µM. The figures for the TGI in [7], in test [8] and in test [9] were 26 µM, 14.6 µM and 14.6 µM, respectively.
`Cc1cc(C)nc(SC2=C(Nc3cccc(Cl)c3)C(=O)N(Cc3ccccc3)C2=O)n1`: the GI50 in test [1], in [2], in test [3], in [4], in test [6] and in [7] was over 170 µM in each case. Moreover, the GI50 in [8] is over 170 µM; in test [9], 34.9 µM; in test [10], over 170 µM. In addition, the TGI in test [1], in [2], in [3], in test [4], in test [6] and in test [7] was over 170 µM each time. The TGI in test [8], in test [9] and in test [10] was over 170 µM throughout.
Turning to `CCCCCCCCCCCC(=O)OCC1OC(n2cc(F)c(=O)[nH]c2=O)C(N)C(O)C1O` (stereo not drawn), the TGI in test [1], in test [2], in test [3], in test [4], in test [5] and in test [6] was over 100 µM each time. Further, the TGI in test [7], in test [8] and in test [9] was over 100 µM each time.
As for `CCOC(=O)/C=C1\Nc2ccccc2-n2nnnc21`, the TGI was over 100 µM in test [1]; over 100 µM in [2]; over 100 µM in test [3]; over 100 µM in test [4]; over 100 µM in test [5]; 64.5 µM in [6]. Further, the TGI in [7], in test [8] and in test [9] was over 100 µM throughout.
